Values after ≈ are worked out from the molar mass of the structure shown. Values joined by “and” are separate entries in the source; they are usually repeats but may differ in a detail not shown here. Equal values may be shown once. “Also recorded” adds a separate entry of the source.
How the values were obtained:
[1] = Partition coefficient (log P), n-octanol/water; format: physicochemical; conditions: 37 °C
Procedure: Flavonoids in methanol (0.5 mg/mL) were pipetted into a tube at a volume of 1 mL. Methanol was then evaporated under vacuum. In the amount of 1 mL of each, n-Octanol and water were incorporated into the tube. After being shaken for 24 h at 37 °C, the tube was centrifugated at 10,000× g for 10 min. The flavonoid content in both phases was analyzed by HPLC. The log P was calculated as log (flavonoid content in n-octanol/flavonoid content in water).

[2] = Franz cell skin deposition in SC-disrupted nude mouse skin; format: in vitro ADME; conditions: 6 mM; for skin deposition after the SC's removal / Skin deposition, fold versus intact skin (SC-stripping): SC-stripped nude mouse skin
Procedure: The full-thickness dorsal skin of the nude mouse was excised after sacrifice. The SC-stripped skin was obtained by stripping the skin surface 20 times with adhesive tape (Scotch®, 3M, Maplewood, MN, USA). The delipidized skin was achieved by incubating the skin surface onto a chloroform/methanol solution (2:1) for 2 h. To prepare the desebumed skin, the SC side of the skin was washed with cold hexane (4 °C) five times, based on the procedure of the previous study. The skin’s surface was then treated with a 40% ethanol/water solution for 2 h, a process that successfully denatured the skin’s proteins.
(§1) The cutaneous absorption of flavonoids was assessed using a Franz diffusion cell system. The excised animal skin or cellulose membrane was mounted between the donor and receptor compartments with the SC facing up toward the donor. The receptor was filled with 30% ethanol/pH 7.4 buffer and placed on a magnetic stirring plate. The effective permeation area of the cell was 0.785 cm^2. The stirring rate and temperature of the receptor were 600 rpm and 37 °C, respectively. Saturated solution or a 6 mM flavonoid suspension was prepared in 20% PEG400/pH 7.4 buffer to be loaded into the donor compartment. A 300-µL aliquot in the receptor was collected at determined durations, followed by an immediate replacement with fresh receptor medium. The amount of flavonoid in the receptor was determined by HPLC. The skin was removed from the cell after a 24-h application. After being washed with water, the skin sample was weighed and positioned in a vial with 1 mL methanol. MagNA Lyser (Roche) was used to homogenize the skin. The homogenate was centrifuged at 10,000× g for 10 min. The supernatant was analyzed by HPLC to quantify the flavonoid deposition in the skin reservoir.

[3] = Capacity factor (log K') by HPLC; format: physicochemical; conditions: HPLC C18, methanol/pH 2 phosphate buffer 1:1
Procedure: The HPLC setup for the calculation of log K’ was an HPLC system (7-series, Hitachi, Tokyo, Japan) with a LiChrospher® C18 column (200 × 4.6 mm, Merck, Darmstadt, Germany). The mobile phase consisted of a mixture of methanol and pH 2 phosphate buffer solution (1:1). The flow rate and wavelength for determination were 1 mL/min (L-7110 pump) and 256 nm (L-7455 diode array detector), respectively. The retention times of flavonoids were detected, and the log K’ was computed as log [(tr − t0)/t0], where tr and t0 were the retention time of the flavonoid and the nonretained solvent peak, respectively.

[4] = In vitro Franz cell skin absorption, nude mouse skin; format: in vitro ADME; conditions: for S value (CSD/PC) / S value (skin deposition/flux) / flux: the sentence does not separate nude mouse and pig skin; for selectivity ratio at 24 h, 6 mM / skin deposition: nude mouse skin; for selectivity ratio at 24 h, 6 mM: read-out: S value (dermal/transdermal selectivity index, skin deposition/flux); for skin deposition: equivalent dose 6 mM, 24 h; for selectivity ratio at 24 h, 6 mM / S value (skin deposition/flux) / flux: dose 6 mM
Procedure: as §1
In the cutaneous absorption experiment, flavonoid deposition in the skin was estimated as the molar amount per mg of skin (nM/mg). In the case of the skin deposition from the saturated solution, the calibrated skin deposition (CSD) was measured as flavonoid deposition divided by the applied dose (saturated solubility). The flux (nM/cm^2/h) was estimated by the slope of the penetrated amount–time curve. The permeability coefficient (PC) was calculated from the flux divided by the saturated solubility of the flavonoids. The dermal/transdermal selectivity index (S value) was calculated using an equation of skin deposition/flux (for equivalent dose application) or CSD/PC (for saturated dose application).

[5] = system: fMLF-activated human neutrophils (O2•– release); assay: Superoxide anion (O2•–) inhibition in fMLF-activated human neutrophils; format: cell-based; conditions: flavonoids at 3 µM, fMLF/cytochalasin B-activated human neutrophils; for inhibition at 3 µM: Homo sapiens, Neutrophil
Description: (§2) The protocol was approved by the Institutional Review Board at Chang Gung Memorial Hospital, and written informed consent was obtained from all volunteers (201600500B0C101). Whole blood was withdrawn from healthy volunteers between 20 and 30 years of age. Human neutrophils were isolated using a typical method of dextran sedimentation prior to centrifugation in a Ficoll-Hypaque gradient and hypotonic lysis of erythrocytes. The granulocyte layer was harvested and suspended in calcium-free HBSS at pH 7.4, which was maintained at 4 °C until use.
(§3) The reduction of ferricytochrome c was utilized for measuring the superoxide anion (O2^•–) release from the neutrophils. The human neutrophils (6 × 10^5 cells/mL) were incubated with 0.5 mg/mL ferricytochrome c and 1 mM CaCl2 at 37 °C, and were then treated with flavonoids (3 µM) in DMSO for 10 min. Neutrophils were stimulated by adding 0.1 µM fMLF with cytochalasin B (1 µg/mL). The reduction of ferricytochrome c was monitored by the absorbance at 550 nm using a U3010 ultraviolet/visible spectrophotometer (Hitachi, Tokyo, Japan). The human neutrophils were equilibrated with an elastase substrate (MeO-Suc-Ala-Ala-Pro-Val-p-nitroanilide, 100 µM) at 37 °C for 2 min. Flavonoids at a concentration of 3 µM were added into the neutrophil suspension for 10 min. The cells were activated by fMLF and cytochalasin B for a further 10 min. Elastase release was detected by measuring the change of absorbance at 405 nm.

[6] = system: fMLF-activated human neutrophils (elastase release); assay: Elastase release inhibition in fMLF-activated human neutrophils; format: cell-based; conditions: flavonoids at 3 µM, fMLF/cytochalasin B-activated human neutrophils; for inhibition at 3 µM: Neutrophil
Description: as §2, §3

[7] = Saturated solubility in 20% PEG400/pH 7.4 buffer; format: physicochemical; conditions: for solubility at 2 h: aqueous with cosolvent or surfactant or cyclodextrin, thermodynamic from solid, 20% PEG400/pH 7.4 buffer, 37 °C
Procedure: The suspension was then centrifuged at 10,000× g for 10 min. The supernatant was filtered across the polyvinylidene fluoride membrane with a pore size of 0.45 µm. The resulting supernatant was analyzed by HPLC to record the solubility (mM).

[8] = In vitro Franz cell skin absorption, pig skin; format: in vitro ADME; conditions: read-out: S value (dermal/transdermal selectivity index, skin deposition/flux)
Procedure: as §1, with “After being washed with water, the skin sample was weighed and positioned in a vial with 1 mL methanol. MagNA Lyser (Roche) was used to homogenize the skin. The homogenate was centrifuged at 10,000× g for 10 min.” left out
In the cutaneous absorption experiment, flavonoid deposition in the skin was estimated as the molar amount per mg of skin (nM/mg). In the case of the skin deposition from the saturated solution, the calibrated skin deposition (CSD) was measured as flavonoid deposition divided by the applied dose (saturated solubility). […] The permeability coefficient (PC) was calculated from the flux divided by the saturated solubility of the flavonoids. […]

[9] = In vivo cutaneous tolerance (TEWL, histology) on nude mouse back; conditions: 6 mM topically daily for 7 days; for histology: SC layers: H&E, versus vehicle control; for ΔTEWL (treated skin minus aqueous vehicle control): nude mouse back
Procedure: The 20% PEG400/pH 7.4 buffer loaded with flavonoids at 6 mM was topically applied daily (0.6 mL) on the nude mouse back for 7 days. The flavonoid-containing vehicle was replaced with a new one each day. After removal of the vehicle, the treated skin region was evaluated by Tewameter TM300 (Courage and Khazaka, Köln, Germany) to determine the transepidermal water loss (TEWL). Stained by hematoxylin and eosin (H&E), the treated skin was excised for histological examination after a 7-day flavonoid application.

[10] = saturated solubility dose, skin type not separated

## O=c1cc(-c2ccccc2)oc2cc(O)c(O)c(O)c12 [Baicalein]
[1]
  logP at 24 h: 3.59 ± 0.08
[2]
  skin deposition after the SC's removal: 0.2 nM/mg
[3]
  log K’: 0.73
[4]; [10]
  calibrated skin deposition (CSD): below the quantification limit
[4]; saturated solubility dose
  S value (CSD/PC): 0
[5]
  inhibition at 3 µM: 77%
[5]; 3 µM
  O2^•– Inhibition: 77.48 ± 5.27%
[6]
  inhibition at 3 µM: 12.2 ± 2.15%
[7]
  solubility at 2 h: 7.7 ± 1.9 µM (≈ 2.08 µg/mL)

## O=C(O)[C@H]1O[C@@H](Oc2cc3oc(-c4ccccc4)cc(=O)c3c(O)c2O)[C@H](O)[C@@H](O)[C@@H]1O [Baicalin]
[1]
  logP at 24 h: 0.89 ± 0.02
[3]
  log K’: 0.42
[5]
  inhibition at 3 µM: 77%
[5]; 3 µM
  O2^•– Inhibition: 75.73 ± 6.21%
[5]; listed as baicalin, 3 µM
  O2^•– Inhibition: 76%
[6]
  inhibition at 3 µM: 0%
  Elastase Inhibition: did not change
[7]
  solubility at 2 h: 5320 ± 150 µM (≈ 2370 µg/mL)

## O=c1c(O)c(-c2ccc(O)cc2)oc2cc(O)cc(O)c12 [Kaempferol]
[8]
  selectivity ratio at 24 h, 6 mM: 1.5
[4]
  selectivity ratio at 24 h, 6 mM: 2.7
  skin deposition: 0.11 nM/mg
[4]; [10]
  permeability coefficient (PC): neglected
[4]; saturated solubility dose
  S value (CSD/PC): infinity
[9]
  histology: SC layers: SC layers could be recovered
  ΔTEWL (treated skin minus aqueous vehicle control): reduced TEWL as compared to the vehicle control; also recorded: alleviated ΔTEWL
[7]
  solubility at 2 h: 190 ± 4.7 µM (≈ 54.4 µg/mL)

## O=c1c(O)c(-c2cc(O)c(O)c(O)c2)oc2cc(O)cc(O)c12 [Myricetin]
[1]
  logP at 24 h: 3.18 ± 0.07
[2]
  Skin deposition, fold versus intact skin (SC-stripping): > 30 x
  skin deposition after the SC's removal: 0.4 nM/mg
[3]
  log K’: 0.34
[4]
  S value (skin deposition/flux): ∞
  flux: near zero
[4]; [10]
  permeability coefficient (PC): neglected
[4]; saturated solubility dose
  S value (CSD/PC): infinity
[5]
  inhibition at 3 µM: 42.1 ± 6.22%
[6]
  inhibition at 3 µM: 16.8 ± 4.76%
[7]
  solubility at 2 h: 530 ± 10 µM (≈ 169 µg/mL)

## O=C1C[C@@H](c2ccc(O)cc2)Oc2cc(O)cc(O)c21 [Naringenin]
[4]
  skin deposition: 0.37 nM/mg
[9]
  histology: SC layers: SC layers could be recovered
  ΔTEWL (treated skin minus aqueous vehicle control): reduced TEWL as compared to the vehicle control
[9]; listed as naringenin
  ΔTEWL (treated skin minus aqueous vehicle control): alleviated ΔTEWL
[7]; PEG400/pH 7.4 buffer solution
  fold more soluble than baicalein: 470 fold
[7]
  solubility at 2 h: 3620 ± 280 µM (≈ 986 µg/mL)

## C[C@@H]1O[C@@H](O[C@H]2[C@H](Oc3cc(O)c4c(c3)O[C@H](c3ccc(O)cc3)CC4=O)O[C@H](CO)[C@@H](O)[C@@H]2O)[C@H](O)[C@H](O)[C@H]1O [Naringin]
[9]
  histology: SC layers: SC layers could be recovered
[7]
  solubility at 2 h: > 20000 µM

## O=c1c(O)c(-c2ccc(O)c(O)c2)oc2cc(O)cc(O)c12 [Quercetin]
[2]
  Skin deposition, fold versus intact skin (SC-stripping): > 30 x
  skin deposition after the SC's removal: 1.2 nM/mg
[2]; deproteinized nude mouse skin
  Skin deposition, fold versus intact skin (Protein removal): failed to change
[4]
  S value (skin deposition/flux): ∞
  flux: near zero
[4]; [10]
  permeability coefficient (PC): neglected
[4]; saturated solubility dose
  S value (CSD/PC): infinity
[7]
  solubility at 2 h: 380 ± 2.5 µM (≈ 115 µg/mL)

## C[C@@H]1O[C@@H](OC[C@H]2O[C@@H](Oc3c(-c4ccc(O)c(O)c4)oc4cc(O)cc(O)c4c3=O)[C@H](O)[C@@H](O)[C@@H]2O)[C@H](O)[C@H](O)[C@H]1O [Rutin]
[3]
  log K’: 0.24
[8]
  selectivity ratio at 24 h, 6 mM: 0.4
[4]
  selectivity ratio at 24 h, 6 mM: 1.3
[5]
  inhibition at 3 µM: 33.9 ± 8.67%
[6]
  inhibition at 3 µM: 13.2 ± 3.39%
[7]
  solubility at 2 h: 1840 ± 40 µM (≈ 1120 µg/mL)

## Kaempferol
[5]
  O2^•– Inhibition: 26.49 ± 8.41%
[6]
  Elastase Inhibition: 18.11 ± 9.01%

## Naringenin
[5]; 3 µM
  O2^•– Inhibition: 19.72 ± 8.23%
[5]; listed as naringenin, 3 µM
  O2^•– Inhibition: 20%
[6]
  Elastase Inhibition: 17.97 ± 6.62%

## Naringin
[5]
  O2^•– Inhibition: 21.51 ± 2.53%
[6]
  Elastase Inhibition: 13.89 ± 9.67%

## Quercetin
[5]
  O2^•– Inhibition: 26.44 ± 8.07%
[6]; 3 µM
  Elastase Inhibition: 29% and 28.67 ± 8.51%
